We go through three compounds from patent publication US20050107289A1, “Anti-microbial peptides and compositions” (priority 2001, published 2005).

In series [1] the test system is S. aureus (MRSA) ATCC 33591. Type of series: cell-based, Staphylococcus aureus. The conditions noted are these: for In Vitro MRSA MIC / S. aureus (MRSA) MIC / MRSA MIC: ATCC 33591; for MRSA (in vitro activity): Table 9, media a: anti-microbial media-3 (AM-3). In outline:
(§1)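 First, peptide stocks in 5% DMSO/9% sucrose were quantified and diluted 2-fold over roughly 400-2 μg/ml. Next, overnight cultures were diluted 4000-fold to ~2.5×10^5 cfu/ml and combined with peptide. Minimum inhibitory concentrations followed NCCLS broth macro- or microdilution procedures.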

In another series the test system is E. coli JM109(DE3). The series is classed as cell-based, Escherichia coli. The settings on record: JM109. In outline:
as §1

The test system of series [2] is vancomycin-resistant Enterococus faecalis (VRE)(ATCC 51575). The series is classed as cell-based, Enterococcus faecalis. More on the design: key to VRE (in vitro activity): peptide concentration in μg/ml (broth dilution assay). The conditions noted are these: for In Vitro VREF MIC / VRE MIC: ATCC 51575; for VRE (in vitro activity): Table 9, media a: AM-3. In outline: as §1

In series [3] the test system is S. aureus MRSA (ATCC 33591). The series is described as follows: Mouse peritonitis model, MRSA protection. The series is classed as in vivo, mice. Further details: PD50 MRSA: unit not given here. The settings on record: for PD50 MRSA: Table 12, male Balb-C mice, IP infection, IP peptide; for In Vivo MRSA PD50: Table 13; for protection of mice from MRSA infection: single bolus IP dose of appropriate amount, 45-60 min after infection; for mice survived: fourteen-day study. The method, then: Bacteria were prepared for in vivo using procedures similar to those as previously described. […] S. aureus MRSA bacteria (ATCC 33591) were grown at 37° C. in 5 mL of Antibiotic Medium-3 (AM-3, Difco Laboratories) with agitation for 12 hours to a stationary phase. Cells were collected by centrifugation, washed twice with saline solution and resuspended in about 10 mL of saline to an O.D.650 of 1.2. This suspension was diluted ten times in a sterilized 5% mucin (Difco) in saline to a concentration of 2-4×10^7 cfu/ml (actual inoculum size was verified by colony counts on agar plates).
Peptides of the invention were tested in mice to ascertain whether they would protect the mice against bacterial infection using procedures similar to those described in N. Frimodt-Moller et al., The Mouse Peritonitis/Sepsis Model, in Zak et al. (eds.) HANDBOOK OF ANIMAL MODELS OF INFECTION 127-37 (Academic Press 1999).
Male Balb-C mice (6 weeks old, approximately 20 g) were used in the study. Staphylococcus aureus MRSA bacteria (ATCC 33591) were grown at 37° C. with agitation for 12 hours to a stationary phase. Cells were collected by centrifugation, washed twice with saline and resuspended to an O.D.650 of 1.4. This suspension was diluted ten times with saline and resuspended to a concentration of 3-5×10^7 cfu/ml. For each peptide five groups of eight mice per group were infected I.P. with 0.5 ml of the above Staphylococcus aureus MRSA preparation (lethal dose). Forty-five minutes to an hour after infection, each group was treated with a different dose of peptide and a control group received vehicle only. Mice were monitored for fourteen days; death was defined as the end point. Median protecting doses (PD50) were calculated following the Reed and Muench method. […] For IV and SQ models peptide was administered immediately after IP infection.

A further series in a line: Toxicity studies in mice. The series is classed as in vivo. Further details: LD50(IP) / LD50(IV): unit not given here. The settings on record: for LD50(IP) / LD50(IV): Table 12, male Balb-C mice; for LD50 at 14 days: male, Balb-C, mouse, in vivo, ip, Table 13. The method, then: Peptides were tested for toxicity in vivo using procedures similar to those described previously. […] Mice (male Balb-C) in groups of 4-8 were given via IV, IP or SQ single bolucdoses of peptides and monitored for 14 days. Toxicity of sublethal doses was assessed based on the behavior and appearance of the mice after peptide administration compared to control mice receiving only vehicle. Signs of acute toxicity included lack of activity, red feet and tail, faster breathing. Death was defined as the end point for lethal doses of peptides.
Toxicology Studies: Initial toxicology studies in mice were conducted to evaluate various routes of drug administration, maximum tolerable dose, and blood and tissue toxicity. Two mice in each dose study were injected with a bolus intravenous (IV), intraperitoneal (IP), or subcutaneous (SQ) doses of peptide SEQ ID NO:8, 18, and 26. For each study, two control animals received vehicle only and no peptide. […] Signs of acute toxicity included any one of the following: lack of activity, red feet and tail, or faster breathing. […] A regimen of […] of peptide SEQ ID NO:18 for three consecutive days was administered to two mice IP and two mice SQ.

Non-standard residues stand in square brackets, D forms with d. Residues, ends and D or L forms follow the SMILES beside them. Where only a bound is given, the exact number is not on record here.

By LD50 is commonly meant the dose at which mortality reaches 50%. Consider `CC(C)C[C@H]1NC(=O)[C@H](Cc2c[nH]c3ccccc23)NC(=O)[C@@H](CCCNC(=N)N)NC(=O)[C@H](CCC(N)=O)NC(=O)[C@@H](CCCCN)NC(=O)[C@H](Cc2c[nH]c3ccccc23)NC(=O)[C@@H](CC(C)C)NC(=O)[C@H](Cc2c[nH]c3ccccc23)NC1=O` [SEQ ID NO:8, cyclo-(D-Lys-Gln-D-Arg-Trp-D-Leu-Trp-D-Leu-Trp)] (cyclo([dK]Q[dR]W[dL]W[dL]W)), for which, in series [1], the “In Vitro MRSA MIC” value came out at 12 µg/mL and the “S. aureus (MRSA) MIC” value came out at 6 µg/mL. In the series on E. coli JM109(DE3), the “E. coli MIC” value stood at 80 µg/mL. For the same compound, in series [2], the “In Vitro VREF MIC” value is 12 µg/mL. For the same compound, in series [3], the “PD50 S. aureus MRSA infection” value is 7 mg/kg, the “PD50 MRSA” value is reported as 7, the “In Vivo MRSA PD50” value is recorded as 7 mg/kg and the “protection of mice from MRSA infection” value is listed as “completely protect”. In addition, in “Toxicity studies in mice”, the “LD50(IP)” value is 55, the “LD50(IV)” value is over 12 and the LD50 at 14 days came to 55 mg/kg. In “Toxicity studies in mice” (mice, IP, maximum tested dose 12 mg/kg), the signs of toxicity result is “no signs of toxicity were observed”. Moreover, in the series “Toxicity studies in mice” (mice, bolus IV 12 mg/kg), the signs of toxicity result is “signs of temporary (<10 min in duration) discomfort”.

`CC(C)C[C@H]1NC(=O)[C@H](Cc2c[nH]c3ccccc23)NC(=O)[C@@H](CCCCN)NC(=O)[C@H](CO)NC(=O)[C@@H](CCCCN)NC(=O)[C@H](Cc2c[nH]c3ccccc23)NC(=O)[C@@H](CC(C)C)NC(=O)[C@H](Cc2c[nH]c3ccccc23)NC1=O` [SEQ ID NO:12, D-Lys-Ser-D-Lys-Trp-D-Leu-Trp-D-Leu-Trp] (cyclo([dK]S[dK]W[dL]W[dL]W)): in series [1], the “In Vitro MRSA MIC” value came out at 5 µg/mL, the MRSA MIC amounted to 5 µg/mL, the “S. aureus (MRSA) MIC” value is 5 µg/mL and the “MRSA (in vitro activity)” value was determined as 5. Also, the “E. coli MIC” value in the series with E. coli JM109(DE3) turned out to be 40 µg/mL. Besides, in series [2], the “In Vitro VREF MIC” value is 15 µg/mL, the VRE MIC is 15 µg/mL and the “VRE (in vitro activity)” value is 15. Moreover, in series [3], the “PD50 S. aureus MRSA infection” value is listed as 20 mg/kg, the “PD50 MRSA” value worked out at 20, the “In Vivo MRSA PD50” value came to 20 mg/kg and the “protection of mice from MRSA infection” value is recorded as “completely protect”. Further, in the series “Toxicity studies in mice”, the “LD50(IP)” value is recorded as over 400, the “LD50(IV)” value stood at 70 and the LD50 at 14 days is over 400 mg/kg.

With `CC(C)C[C@H]1NC(=O)[C@H](Cc2c[nH]c3ccccc23)NC(=O)[C@@H](CCCCN)NC(=O)[C@H](CCCNC(=N)N)NC(=O)[C@@H](CCCNC(=N)N)NC(=O)[C@H](Cc2c[nH]c3ccccc23)NC(=O)[C@@H](CC(C)C)NC(=O)[C@H](Cc2c[nH]c3ccccc23)NC1=O` [SEQ ID NO:18, cyclo-(D-Arg-Arg-D-Lys-Trp-D-Leu-Trp-D-Leu-Trp)] (cyclo([dR]R[dK]W[dL]W[dL]W)), in series [1], the “In Vitro MRSA MIC” value was 6 µg/mL, the MRSA MIC was 5 µg/mL, the “S. aureus (MRSA) MIC” value was 6 µg/mL and the “MRSA (in vitro activity)” value is listed as 5. Further, in the series with E. coli JM109(DE3), the “E. coli MIC” value turned out to be 15 µg/mL. For the same compound, in series [2], the “In Vitro VREF MIC” value was found to be 5 µg/mL, the VRE MIC is 5 µg/mL and the “VRE (in vitro activity)” value worked out at 5. Further, in series [3], the “PD50 S. aureus MRSA infection” value was determined as 8 mg/kg, the “PD50 MRSA” value is 8, the “In Vivo MRSA PD50” value is listed as 8 mg/kg and the “protection of mice from MRSA infection” value was “completely protect”. The compound also returned a mice survived in series [3] (40 mg/kg bolus SQ) of 75%. The compound also returned a mice survived in series [3] (2.5×5 mg/kg IV dosage regimen) of 50%. Moreover, in series [3] (FIG. 6, mice challenged with lethal doses of MRSA), the “PD50 protective dose where 50% of animals survive” value is 5 ± 2 mg/kg. Moreover, in “Toxicity studies in mice”, the “LD50(IP)” value is given as 60, the “LD50(IV)” value is reported as 16 and the LD50 at 14 days was found to be 60 mg/kg. In “Toxicity studies in mice” (mice, 17.5 mg per day, three consecutive days, IP or SQ, over four days), the “physical, social and feeding activities” value is “no apparent changes in the physical, social, and feeding activities”. For the same compound, in “Toxicity studies in mice” (mice, 17.5 mg per day, three days), the “sites of IP and SQ injections” value was “moderate subacute inflammation”. For the same compound, the “hematology, necropsy and microscopic examination” value in “Toxicity studies in mice” (mice, 17.5 mg per day, three days, fourth day) was “normal blood and morphological profiles except for the sites of IP and SQ injections”. In “Toxicity studies in mice” (mice, up to 17.5 mg/kg IP and SQ), the signs of toxicity result is “without any apparent signs of toxicity”.
